Source: patent EP0942896B1, “SUBSTITUTED PHENOLS AND THIOPHENOLS USEFUL AS ANTIOXIDANT AGENTS” (Aventis Pharmaceuticals Inc., priority 1996, dated 1998)

Tests used:
[1] = Animal parameters (food, body weight, liver weight/body weight, mortality) in rats; assay type: in vivo; details: 4 days; for food / lw/bw / body wt.: % of control, diet 0.3%, N = 5; for food: grams eaten per day per rat; for lw/bw: liver weight/body weight; for lw/bw / body wt. / mortality: rat; for body wt.: weight in grams; for mortality: male, Sprague-Dawley, in vivo
Description: (§1) A typical experiment consists of 4-6 groups of rats (N = 5 per group) with I group being a control which receives no MDL compound and the other groups being treated with 0.3% MDL compound. Some of the compounds are either repeated at 0.3% or evaluated again at the lower dose of 0.1%. House Male Sprague-Dawley rats, 50-100 g, (Harlan Laboratories, Indianapolis, IN) in groups of 5, feeding ad libitum water and Purina Rodent chow (#5002) with or without MDL compound as a dietary admixture for 4 days. Make dietary admixtures (0.3%) by mixing 1.2 grams of an MDL compound with 400 grams of Purina rodent chow (#5002). Mix the MDL compound with approximately 50 grams of food using a mortar and pestle. This is added to the remainder of the food and mixed for 3 hours on a rotary mixer. In the morning of day 5, anesthetize non-fasted rats with carbon dioxide, and collect blood by cardiac puncture. Sacrifice rats by cervical dislocation. Record body weights and liver weights in grams. Record food consumption as grams • day^-1 • rat^-1. Deaths are recorded as mortality. Use aliquots of fresh serum for clinical chemistries, thiobarbituric acid reactive substances (TBARS) and conjugated diene measurements. Freeze aliquots of serum (∼ 0.5mL) and whole livers at -20°C for compound and metabolite concentration determination at a later time.

[2] = system: oxidation of serum lipids; test: TBARS assay on serum of treated rats (CuSO4-initiated oxidation); assay type: in vivo, Male Sprague-Dawley rats; details: % of control; thiobarbituric acid reactive substances as nmoles MDA, rat serum; diet 0.3%, 4 days; N = 5
Description: as §1
In this assay the oxidation of serum lipids is initiated with CuSO4, resulting in the formation of aldehydes, such as malondialdehyde (MDA). Upon incubation with thiobarbituric acid, the absorbance of the aldehydes can be detected at 530-540 nm. As stated in the previous example, TBARS values which are lower than control serum values indicate the relative ability of a test compound to inhibit the oxidation of lipids in a sample. Measure TBARS as follows: mix 100µL of serum with 400µL of a 5mmol CuSO4 solution and incubate at 37°C for 3 hr. Stop the reactions by addition of 1.0mL of 20% trichloroacetic acid. Then add 1.0mL of 0.67% thiobarbituric acid in 0.05 N sodium hydroxide, mix, and incubate the samples for 30 min at 90°C. Centrifuge samples briefly to pellet undissolved material, and transfer the supernatants to a 96-well microtiter plate. Measure absorbances at 540 nm using a Biotek model EL311 microplate reader. The nmoles of MDA produced are calculated from a standard curve of 0 to 10 nmoles of MDA prepared from malonaldehyde bis(dimethylacetal). Serum samples from treated rats are compared to serum samples from control rats that received no MDL compound.

ICAM-1 [3] = test: Inhibition of ICAM-1 expression in proliferating human umbilical vein endothelial cells (cell ELISA); assay type: cell-based; details: HUVEC, coincubated with tumor necrosis factor-alpha about 20 to 24 hr, average of two runs, read-out: ICAM-1 (% inh. 50 µM)
Description: Plate proliferating human umbilical vein endothelial cells (HUVEC) or human aortic smooth muscle cells (HASMC) from Clonetics (San Diego, CA) onto 96-well plates in 100 µL medium per well at 20,000 cells per cm^2. Maintain the cultures in growth medium (EGM or SMGM2, Clonetics, San Diego, CA) for two days prior to addition of cytokines or drugs. Add cytokines plus or minus compounds for 20 to 24 hours prior to analysis for adhesion molecule levels. Add tumor necrosis factor (Genzyme, Cambridge, MA) to cultures at 500-1000 units/mL to stimulate ICAM-1 expression. Add interleukin-4 (GIBCO-BRL, Gaithersburg, MD) to cultures at 100-200 pg/mL to stimulate VCAM-1 expression. […] Remove the culture medium, and wash the monolayers twice with Hanks buffered saline solution (HBSS) at room temperature. Add the primary antibody (anti-human VCAM-1 from Upstate Biotechnology, Inc., Lake Placid, NY or anti-human ICAM-1 from Immunotech, Inc., Westbrook, ME) to each well (1 µg/mL in HBSS plus 5% newborn calf serum, GIBCO-BRL, Gaithersburg, MD) and incubate at 37°C for 1 hr. Wash the wells twice with HBSS, then add 100 µL of a 1/1000 dilution of goat anti-mouse IgG conjugated to horse radish peroxidase (BioRad, Hercules, CA) in HBSS plus 5% newborn calf serum to each well and incubated for 1 hr at 37°C. Wash the wells three times with HBSS, then add 100 µL of TMB substrate (BioRad, Hercules, CA) to each well. Stop the reaction after blue color develops by addition of 50 µL of IN H2SO4. Measure absorbance at 450 nm with a plate reader. […] In these experiments, the cells were coincubated with tumor necrosis factor-alpha along with the indicated compounds about 20 to 24 hr before assaying cell surface adhesion molecule expression.

ICAM-1 [4] = test: Inhibition of cytokine-induced ICAM-1 expression in human aortic smooth muscle cells (cell ELISA); assay type: cell-based; details: HASMC, tumor necrosis factor-alpha stimulated, average of two runs, numbers in parentheses represent negative values, read-out: ICAM-1 (% inh. 50 µM)
Description: Plate proliferating human umbilical vein endothelial cells (HUVEC) or human aortic smooth muscle cells (HASMC) from Clonetics (San Diego, CA) onto 96-well plates in 100 µL medium per well at 20,000 cells per cm^2. Maintain the cultures in growth medium (EGM or SMGM2, Clonetics, San Diego, CA) for two days prior to addition of cytokines or drugs. Add cytokines plus or minus compounds for 20 to 24 hours prior to analysis for adhesion molecule levels. Add tumor necrosis factor (Genzyme, Cambridge, MA) to cultures at 500-1000 units/mL to stimulate ICAM-1 expression. Add interleukin-4 (GIBCO-BRL, Gaithersburg, MD) to cultures at 100-200 pg/mL to stimulate VCAM-1 expression. […] Remove the culture medium, and wash the monolayers twice with Hanks buffered saline solution (HBSS) at room temperature. Add the primary antibody (anti-human VCAM-1 from Upstate Biotechnology, Inc., Lake Placid, NY or anti-human ICAM-1 from Immunotech, Inc., Westbrook, ME) to each well (1 µg/mL in HBSS plus 5% newborn calf serum, GIBCO-BRL, Gaithersburg, MD) and incubate at 37°C for 1 hr. Wash the wells twice with HBSS, then add 100 µL of a 1/1000 dilution of goat anti-mouse IgG conjugated to horse radish peroxidase (BioRad, Hercules, CA) in HBSS plus 5% newborn calf serum to each well and incubated for 1 hr at 37°C. Wash the wells three times with HBSS, then add 100 µL of TMB substrate (BioRad, Hercules, CA) to each well. Stop the reaction after blue color develops by addition of 50 µL of IN H2SO4. Measure absorbance at 450 nm with a plate reader.
Table 1 summarizes the ability of selected compounds of this invention to inhibit VCAM-1 and ICAM-1 using human aortic smooth muscle cells (HASMC). In these experiments, the cells were coincubated with interleukin-4 to stimulate VCAM-1 expression and with tumor necrosis factor-alpha to stimulate ICAM-1 expression.

Structure (SMILES)	food [1] [%]	lw/bw [1] [%]	body wt. [1] [%]	mortality [1] [%]	TBARS [2] [%]	inhibition at 50 µM (ICAM-1 [3]) [%]	inhibition at 50 µM (ICAM-1 [4]) [%]
CC(C)=CCC[C@H](C)CCOc1cc(C(C)(C)C)c(O)c(C(C)(C)C)c1 [MDL 103,294, Phenol, 2,6-bis(1,1-dimethylethyl)-4-[(3,7-dimethyl-6-octenyl)oxy]-, (S)-]	108	129	101	0	18	–	–
CC(C)=CCCC(C)CCSc1cc(C(C)(C)C)c(O)c(C(C)(C)C)c1 (centres unmarked) [MDL 103,960, Phenol, 2,6-bis(1,1-dimethylethyl)-4-[(3,7-dimethyl-6-octenyl)thio]-]	105	130	100	0	24	9.5	0
CC(C)CCCC(C)CCOc1ccc(O)c(C(C)(C)C)c1 (centres unmarked) [MDL 104,191, Phenol, 2-(1,1-dimethylethyl)-4-[(3,7-dimethyloctyl)oxy]-]	76	126	92	0	20	70.5	22
CC(C)=CCC[C@@H](C)CCOc1cc(C(C)(C)C)c(O)c(C(C)(C)C)c1 [MDL 104,535, Phenol, 2,6-bis(1,1-dimethylethyl)-4-[(3,7-dimethyl-6-octenyl)oxy]-,(R)-]	95	119	102	0	11	11.5	10
